Data on 21 compounds can be found in patent US20190367516A1 (Bayer Pharma Aktiengesellschaft, priority 2015, published 2019).

This experiment addresses T1, human M2 receptor (Homo sapiens, UniProt P08172).
T1 sequence (P08172 1-466): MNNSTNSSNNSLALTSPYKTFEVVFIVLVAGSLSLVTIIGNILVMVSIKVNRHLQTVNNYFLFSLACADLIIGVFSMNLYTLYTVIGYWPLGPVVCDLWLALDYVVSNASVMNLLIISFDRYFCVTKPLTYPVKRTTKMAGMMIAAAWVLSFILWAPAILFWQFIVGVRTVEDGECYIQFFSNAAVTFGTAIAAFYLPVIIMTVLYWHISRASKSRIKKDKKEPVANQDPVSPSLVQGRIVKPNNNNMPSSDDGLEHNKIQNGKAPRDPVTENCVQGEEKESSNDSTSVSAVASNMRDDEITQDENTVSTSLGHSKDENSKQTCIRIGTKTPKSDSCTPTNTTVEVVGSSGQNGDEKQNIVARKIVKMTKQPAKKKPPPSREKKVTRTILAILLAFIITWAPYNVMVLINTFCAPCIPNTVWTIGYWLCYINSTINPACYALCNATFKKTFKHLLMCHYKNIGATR
The conditions noted are these: for EC50: Receptor activity EC50, allosteric potency at EC20 acetylcholine, in some cases mean of two or more determinations.

[1] abbreviates: read-out: Efficiency, boosting of the acetylcholine effect at EC20 acetylcholine concentration, M2-GIRK1/4 reporter cells.

As a reminder, the EC50 is the concentration that produces a half-maximal response.

The structures appear in SMILES notation. Like-named read-outs stand apart in the source and are kept apart here.

`CC[C@@H](NC(=O)c1cn(-c2c(F)cccc2F)c2nc(N3CCNC3=O)ccc2c1=O)C(F)(F)F` [Example 638, 1-(2,6-Difluorophenyl)-4-oxo-7-(2-oxoimidazolidin-1-yl)-N-[(2R)-1,1,1-trifluorobutan-2-yl]-1,4-dihydro-1,8-naphthyridine-3-carboxamide] displayed an EC50 (M2-GIRK1/4 reporter cells) of 63 nM. The Emax under setting [1] worked out at 100%.
In the case of `CC[C@@H](NC(=O)c1cn(-c2ccc(F)cc2F)c2nc(N3C(=O)CC(O)C3C)ccc2c1=O)C(F)(F)F` (stereo partly drawn) [Example 640, 1-(2,4-Difluorophenyl)-7-[3-hydroxy-2-methyl-5-oxopyrrolidin-1-yl]-4-oxo-N-[(2R)-1,1,1-trifluorobutan-2-yl]-1,4-dihydro-1,8-naphthyridine-3-carboxamide], the EC50 (M2-GIRK1/4 reporter cells) is 69 nM. In addition, under setting [1], the Emax turned out to be 91.3%.
As to `COC1(C)CN(c2ccc3c(=O)c(C(=O)NC45CC(C4)C5)cn(-c4c(F)cc(F)cc4F)c3n2)C1` [Example 641, N-(Bicyclo[1.1.1]pent-1-yl)-7-(3-methoxy-3-methylazetidin-1-yl)-4-oxo-1-(2,4,6-trifluorophenyl)-1,4-dihydro-1,8-naphthyridine-3-carboxamide], for the setting “M2-GIRK1/4 reporter cells”, a half-maximal effect (EC50) was put at 71 nM. For the same compound, under setting [1], the Emax worked out at 100%.
For `O=C(N[C@@H](C1CC1)C(F)(F)F)c1cn(-c2c(F)cc(F)cc2F)c2nc(N3C[C@H](O)[C@@H](O)C3)ccc2c1=O` [Example 642, N-[(1 S)-1-Cyclopropyl-2,2,2-trifluoroethyl]-7-[(3S,4S)-3,4-dihydroxypyrrolidin-1-yl]-4-oxo-1-(2,4,6-trifluorophenyl)-1,4-dihydro-1,8-naphthyridine-3-carboxamide], where the note is “M2-GIRK1/4 reporter cells”, the EC50 was 72 nM. The Emax (read-out: Efficiency) stood at 100%.
The compound `CC[C@@H](NC(=O)c1cn(-c2c(Cl)cc(F)cc2Cl)c2nc(N3C[C@@H](O)[C@H](O)C3)ccc2c1=O)C(F)(F)F` [Example 643, 1-(2,6-Dichloro-4-fluorophenyl)-7-[(3R,4R)-3,4-dihydroxypyrrolidin-1-yl]-4-oxo-N-[(2R)-1,1,1-trifluorobutan-2-yl]-1,4-dihydro-1,8-naphthyridine-3-carboxamide] yielded an EC50 (M2-GIRK1/4 reporter cells) of 73 nM. Moreover, under setting [1], the Emax turned out to be 92%.
On the same counts, the results for `O=C(N[C@@H](C1CC1)C(F)(F)F)c1cn(-c2c(F)cccc2F)c2nc(N3CCNC3=O)ccc2c1=O` [Example 644, N-[(1 S)-1-Cyclopropyl-2,2,2-trifluoroethyl]-1-(2,6-difluorophenyl)-4-oxo-7-(2-oxoimidazolidin-1-yl)-1,4-dihydro-1,8-naphthyridine-3-carboxamide] are 74 nM and 85%.
Where the note is “M2-GIRK1/4 reporter cells”, `CC[C@@H](NC(=O)c1cn(-c2c(Cl)cccc2Cl)c2nc(N3C[C@@H](O)CC3=O)ccc2c1=O)C(F)(F)F` [Example 645, 1-(2,6-Dichlorophenyl)-7-[(4S)-4-hydroxy-2-oxopyrrolidin-1-yl]-4-oxo-N-[(2R)-1,1,1-trifluorobutan-2-yl]-1,4-dihydro-1,8-naphthyridine-3-carboxamide] came in with an EC50 of 74 nM. In addition, the Emax (read-out: Efficiency) worked out at 83%.
Consider `O=C(N[C@H](C1CC1)C(F)(F)F)c1cn(-c2c(Cl)cc(F)cc2Cl)c2nc(N3CCNC3=O)ccc2c1=O` [Example 647, N-[(1R)-1-Cyclopropyl-2,2,2-trifluoroethyl]-1-(2,6-dichloro-4-fluorophenyl)-4-oxo-7-(2-oxoimidazolidin-1-yl)-1,4-dihydro-1,8-naphthyridine-3-carboxamide], for which the Emax under setting [1] was determined as 92%.
For the compound `CC[C@@H](NC(=O)c1cn(-c2c(Cl)cc(F)cc2Cl)c2nc(N3CCNC3=O)ccc2c1=O)C(F)(F)F` [Example 649, 1-(2,6-Dichloro-4-fluorophenyl)-4-oxo-7-(2-oxoimidazolidin-1-yl)-N-[(2R)-1,1,1-trifluorobutan-2-yl]-1,4-dihydro-1,8-naphthyridine-3-carboxamide], the EC50 (M2-GIRK1/4 reporter cells) was 83 nM. Under setting [1], the Emax was determined as 94%.
Take `NC(=O)N1CCN(c2ccc3c(=O)c(C(=O)N[C@H](C4CC4)C(F)(F)F)cn(-c4c(F)cc(F)cc4F)c3n2)CC1` [Example 650, 7-(4-Carbamoylpiperazin-1-yl)-N-[(1R)-1-cyclopropyl-2,2,2-trifluoroethyl]-4-oxo-1-(2,4,6-trifluorophenyl)-1,4-dihydro-1,8-naphthyridine-3-carboxamide]: it took 83 nM to reach a half-maximal effect (M2-GIRK1/4 reporter cells) (EC50). Further, under setting [1], the Emax came to 100%.
As for `O=C(Nc1c(Cl)cccc1Cl)c1cn(-c2ccc(F)cc2F)c2nc(N3C[C@@H](O)[C@@H](O)C3)ccc2c1=O` [Example 651, N-(2,6-Dichlorophenyl)-1-(2,4-difluorophenyl)-7-[(3R,4S)-3,4-dihydroxypyrrolidin-1-yl]-4-oxo-1,4-dihydro-1,8-naphthyridine-3-carboxamide], where the note is “M2-GIRK1/4 reporter cells”, the EC50 was 86 nM. Moreover, the Emax under setting [1] was determined as 95%.
The like results for `CC[C@@H](NC(=O)c1cn(-c2c(Cl)cccc2Cl)c2nc(N3CC4CC4(O)C3)ccc2c1=O)C(F)(F)F` (stereo partly drawn) [Example 652, 1-(2,6-Dichlorophenyl)-7-[1-hydroxy-3-azabicyclo[3.1.0]hex-3-yl]-4-oxo-N-[(2R)-1,1,1-trifluorobutan-2-yl]-1,4-dihydro-1,8-naphthyridine-3-carboxamide] were, in that order, 89 nM and 80%.
Turning to `O=C(NC12CC(C1)C2)c1cn(-c2c(F)cc(F)cc2F)c2nc(N3CCNC3=O)ccc2c1=O` [Example 653, N-(Bicyclo[1.1.1]pent-1-yl)-4-oxo-7-(2-oxoimidazolidin-1-yl)-1-(2,4,6-trifluorophenyl)-1,4-dihydro-1,8-naphthyridine-3-carboxamide], the EC50 (M2-GIRK1/4 reporter cells) stood at 89 nM. Further, under setting [1], the Emax is 86.5%.
Consider `CC[C@H](NC(=O)c1cn(-c2c(Cl)cc(F)cc2Cl)c2nc(N3CCNC3=O)ccc2c1=O)C(F)(F)F` [Example 654, 1-(2,6-Dichloro-4-fluorophenyl)-4-oxo-7-(2-oxoimidazolidin-1-yl)-N-[(2S)-1,1,1-trifluorobutan-2-yl]-1,4-dihydro-1,8-naphthyridine-3-carboxamide], for which the EC50 (M2-GIRK1/4 reporter cells) came out at 93 nM. Also, the Emax under setting [1] is 84%.
The like results for `CC1(NC(=O)c2cn(-c3c(F)cc(F)cc3F)c3nc(N4C[C@@H](O)[C@H](O)C4)ccc3c2=O)CC(F)(F)C1` [Example 655, N-(3,3-Difluoro-1-methylcyclobutyl)-7-[(3R,4R)-3,4-dihydroxypyrrolidin-1-yl]-4-oxo-1-(2,4,6-trifluorophenyl)-1,4-dihydro-1,8-naphthyridine-3-carboxamide] were, in that order, 97 nM and 98%.
The like results for `CC1(NC(=O)c2cn(-c3c(F)cc(F)cc3F)c3nc(N4CCNC4=O)ccc3c2=O)CC(F)(F)C1` [Example 656, N-(3,3-Difluoro-1-methylcyclobutyl)-4-oxo-7-(2-oxoimidazolidin-1-yl)-1-(2,4,6-trifluorophenyl)-1,4-dihydro-1,8-naphthyridine-3-carboxamide] were, in that order, 100 nM and 91.5%.
The like results for `CC[C@@H](NC(=O)c1cn(-c2ccc(F)cc2F)c2nc(N3C(=O)C(C)(C)C(O)C3C)ccc2c1=O)C(F)(F)F` (stereo partly drawn) [Example 657, 1-(2,4-Difluorophenyl)-7-[4-hydroxy-3,3,5-trimethyl-2-oxopyrrolidin-1-yl]-4-oxo-N-[(2R)-1,1,1-trifluorobutan-2-yl]-1,4-dihydro-1,8-naphthyridine-3-carboxamide] were, in that order, 100 nM and 85.3%.
`CC(C)C[C@@H](NC(=O)c1cn(-c2c(F)cc(F)cc2F)c2nc(N3C[C@@H](O)CC3=O)ccc2c1=O)C(F)(F)F` [Example 658, 7-[(4S)-4-Hydroxy-2-oxopyrrolidin-1-yl]-4-oxo-N-[(2R)-1,1,1-trifluoro-4-methylpentan-2-yl]-1-(2,4,6-trifluorophenyl)-1,4-dihydro-1,8-naphthyridine-3-carboxamide] yielded an EC50 (M2-GIRK1/4 reporter cells) of 6 nM. Also, under setting [1], the Emax is 100%.
The like results for `O=C(N[C@@H](C1CC1)C(F)(F)F)c1cn(-c2c(F)cc(F)cc2F)c2nc(N3CCC[C@H]3CO)ccc2c1=O` [Example 660, N-[(1S)-1-Cyclopropyl-2,2,2-trifluoroethyl]-7-[(2S)-2-(hydroxymethyl)pyrrolidin-1-yl]-4-oxo-1-(2,4,6-trifluorophenyl)-1,4-dihydro-1,8-naphthyridine-3-carboxamide] were, in that order, 102 nM and 84.5%.
On the same counts, the results for `O=C(N[C@@H](C1CC1)C(F)(F)F)c1cn(-c2c(F)cc(F)cc2F)c2nc(N3CCC[C@@H]3CO)ccc2c1=O` [Example 661, N-[(1 S)-1-Cyclopropyl-2,2,2-trifluoroethyl]-7-[(2R)-2-(hydroxymethyl)pyrrolidin-1-yl]-4-oxo-1-(2,4,6-trifluorophenyl)-1,4-dihydro-1,8-naphthyridine-3-carboxamide] are 48 nM and 95.5%.
On the same counts, the results for `O=C(N[C@@H](C1CC1)C(F)(F)F)c1cn(-c2c(F)cc(F)cc2F)c2nc(N3CC(O)C3)ccc2c1=O` [Example 662, N-[(1S)-1-Cyclopropyl-2,2,2-trifluoroethyl]-7-(3-hydroxyazetidin-1-yl)-4-oxo-1-(2,4,6-trifluorophenyl)-1,4-dihydro-1,8-naphthyridine-3-carboxamide] are 38 nM and 100%.
